According to PubChem BioAssay (NCI):
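GI50 marks 50% less growth. TGI denotes the concentration required for complete inhibition of growth.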

What was measured:
Assay in all cases: DTP human tumour cell line panel, 384-well format
PC-3 prostate = system: PC-3 prostate
SF-539 CNS = system: SF-539 CNS
UACC-257 melanoma = system: UACC-257 melanoma
SNB-19 CNS = system: SNB-19 CNS
TK-10 renal = system: TK-10 renal
MDA-MB-231 breast = system: MDA-MB-231 breast
NCI-H23 lung = system: NCI-H23 lung
MDA-MB-468 breast = system: MDA-MB-468 breast
HOP-62 NSCLC = system: HOP-62 NSCLC
MCF7 breast = system: MCF7 breast
DU-145 prostate = system: DU-145 prostate
CCRF-CEM leukemia = system: CCRF-CEM leukemia
RPMI-8226 leukemia = system: RPMI-8226 leukemia
NCI-H522 lung = system: NCI-H522 lung
KM12 colon = system: KM12 colon
U251 glioblastoma = system: U251 glioblastoma
SN12C renal = system: SN12C renal
HS 578T breast = system: HS 578T breast
A549 NSCLC = system: A549 NSCLC
SF-268 CNS = system: SF-268 CNS
UO-31 renal = system: UO-31 renal
MALME-3M melanoma = system: MALME-3M melanoma
T-47D breast = system: T-47D breast
LOX IMVI melanoma = system: LOX IMVI melanoma
MOLT-4 leukemia = system: MOLT-4 leukemia
HCT-15 colon = system: HCT-15 colon
MDA-MB-435 melanoma = system: MDA-MB-435 melanoma
A498 renal = system: A498 renal

Which results are given for `CN(C)CCNC(=O)NC[C@H]1CC[C@@H]2[C@H](O1)c1cc(C(F)(F)F)ccc1N[C@H]2c1ccccc1`?
GI50 (PC-3 prostate): 128 nM; TGI (PC-3 prostate): 17700 nM; GI50 (SF-539 CNS): 93.7 nM; TGI (SF-539 CNS): 10800 nM; GI50 (UACC-257 melanoma): 375 nM; TGI (UACC-257 melanoma): 15100 nM; GI50 (SNB-19 CNS): 163 nM; TGI (SNB-19 CNS): 19300 nM; GI50 (TK-10 renal): 14000 nM; TGI (TK-10 renal): 28700 nM; GI50 (MDA-MB-231 breast): 235 nM; TGI (MDA-MB-231 breast): 13800 nM; GI50 (NCI-H23 lung): 124 nM; TGI (NCI-H23 lung): 1980 nM; GI50 (MDA-MB-468 breast): 29.6 nM; TGI (MDA-MB-468 breast): 64.7 nM; GI50 (HOP-62 NSCLC): 618 nM; TGI (HOP-62 NSCLC): 18200 nM; GI50 (MCF7 breast): 64.9 nM; TGI (MCF7 breast): 14000 nM; GI50 (DU-145 prostate): 279 nM; TGI (DU-145 prostate): 4690 nM; GI50 (CCRF-CEM leukemia): 28.9 nM; TGI (CCRF-CEM leukemia): 57 nM; GI50 (RPMI-8226 leukemia): 19.3 nM; TGI (RPMI-8226 leukemia): 38.9 nM; GI50 (NCI-H522 lung): 29.8 nM; TGI (NCI-H522 lung): 73.6 nM; GI50 (KM12 colon): 128 nM; TGI (KM12 colon): 11800 nM; GI50 (U251 glioblastoma): 80.3 nM; TGI (U251 glioblastoma): 18100 nM; GI50 (SN12C renal): 5120 nM; TGI (SN12C renal): 31300 nM; GI50 (HS 578T breast): 36 nM; TGI (HS 578T breast): 131 nM; GI50 (A549 NSCLC): 124 nM; TGI (A549 NSCLC): 16900 nM; GI50 (SF-268 CNS): 289 nM; TGI (SF-268 CNS): 16400 nM; GI50 (UO-31 renal): 20000 nM; TGI (UO-31 renal): 85600 nM; GI50 (MALME-3M melanoma): 387 nM; TGI (MALME-3M melanoma): 15000 nM; GI50 (T-47D breast): 325 nM; TGI (T-47D breast): 12900 nM; GI50 (LOX IMVI melanoma): 1170 nM; TGI (LOX IMVI melanoma): 17600 nM; GI50 (MOLT-4 leukemia): 69.6 nM; TGI (MOLT-4 leukemia): 193 nM; GI50 (HCT-15 colon): 303 nM; TGI (HCT-15 colon): 12000 nM; GI50 (MDA-MB-435 melanoma): 21.8 nM; TGI (MDA-MB-435 melanoma): 45.8 nM; GI50 (A498 renal): 88.3 nM; TGI (A498 renal): 18700 nM
